From US8304393B2, “Epithelial cell growth promoter” (Patent Technology Development Inc., priority 2004, dated 2012)

What was measured:
C3H/He female mice = test: Hair regrowth on shaved dorsal skin of telogen-phase mice (Example 6); assay type: in vivo; conditions: 1 mg/ml, 100 μl/mouse once a day topical, 14th day after application
Protocol: A 1 mg portion of the pentapeptide obtained in Example 3 was dissolved in 300 μl of water for injection (product code “057-00456”, a product by Otsuka Pharmaceutical Co.), to which 200 μl of propylene glycol (product code “161-05006”, a product by Wako Pure Chemical Industries) and 500 μl of ethyl alcohol (product code “057-00456”, a product by Wako Pure Chemical Industries) were then added and they were mixed together to prepare an epithelial cell growth promoter in a concentration of 1 mg/ml.
Ten 7-week-old C3H/He female mice were raised for acclimatization for 1 week, and the hair on the dorsal of each mouse in the telogen phase of a hair cycle was shaved with an electric clipper and an electric shaver to prepare experimental animals.
Next, these experimental animals were divided into two groups each containing five mice. The epithelial cell growth promoter was applied at 100 μl/mouse once a day to the shaved area of the first group from the 3rd day after shaving on, while only a mixture of water for injection, propylene glycol, and ethyl alcohol (3:2:5 by volume) was applied as a control to the second group.
Next, these images were computer-processed to calculate with image analysis software the ratio of the hair-regrowth area (the number of pixels of hair-regrowth area/the number of pixels of shaved area) as percentages. […]

HBKs = test: HBK growth test (Example 7, AlamarBlue); assay type: cell-based, C3H/HeN mouse; conditions: for effect on the HBK growth as compared with that of the control: 4 days culture
Text: (§1) To confirm the cell selectivity of the oligopeptide obtained in Example 3 as an epithelial cell growth promoter, the presence or absence of the cell growth-promoting effect on cells existing in skin tissues, that is, HBKs, epidermal cells, dermal fibroblasts, and hair papilla cells, was examined in the following manner. Incidentally, the same culture medium and test medium as in Example 5 were used.
(§2) The skin of a 5 day-old C3H/HeN mouse was aseptically collected and cut with a surgical knife into samples of strips of approximately 2-mm-wide skin slices. The above-mentioned samples were immersed in a solution prepared by dissolving 500 U/ml of dispase (lot No. 0101, a product by GODO SHUSEI CO.) in DMEM (product code “D-5523”, a product by Sigma) containing 5% by mass of FBS (lot No. 0101, a product by Cansera International Inc.), and then kept standing at 4° C. for 16 hours. Subsequently, epidermis tissues were ablated with tweezers from the skin slices and separated from dermis tissues. The thus obtained epidermis tissues were subjected to the separation of epidermal cells, and the dermis tissues were subjected to the separation of HBKs and dermal fibroblasts.
The thus obtained dermis tissues were immersed in PBS (−) (product code “P-4417”, a product by Sigma) and cut into strips with opthalmological scissors. The strips were immersed into a solution prepared by dissolving 0.2% by mass of collagenase (lot No. 001014W, a product by Nitta Gelatin Inc.) in DMEM containing 5% by mass of FBS, and then digested at 37° C. for 1 hour. The thus obtained dermis digestion solution was centrifuged at 1000 rpm for 5 minutes. The supernatant was removed, and the residue was supplemented with PBS (−) and gently pipetted to prepare a dermis suspension.
For separating dermal fibroblasts and hair bulbs, this dermis suspension was kept standing for 15 minutes to precipitate only the hair bulbs. The “standing to precipitation” procedure was repeated three times. The thus obtained hair bulbs were immersed in a solution preparing by dissolving 0.25% by mass of trypsin in 2.65 mM aqueous EDTA solution, and then treated at 37° C. for 5 minutes to prepare a dispersion solution of HBKs.
(§3) Next, this dispersion solution was centrifuged at 1000 rpm for 5 minutes. After this centrifugation, the supernatant was removed. The thus obtained HBKs were dispersed in a culture medium, then inoculated into a collagen-coated 96-well microplate, and cultured at 37° C. in an atmosphere containing 5% CO2.
(§4) A 1 mg portion of the pentapeptide obtained in Example 3 was added to 232.8 μl of a test medium and dissolved by stirring to prepare a 10 mM solution. Subsequently, this 10 mM solution was stepwise diluted to prepare 6 types of sample solutions each in a concentration of 100 μM (No. 1), 30 μM (No. 2), 10 μM (No. 3), 3 μM (No. 4), 1 (No. 5), and 0.3 μM (No. 6). Only a test medium was used as a control.
(§5) After 24 hours from the inoculation of the cells, the culture solutions were removed, and the cultured cells were washed with an MCDB153 solution. Each of the above mentioned sample solutions was added to the cultured cell at 100 μl/well and cultured at 37° C. in an atmosphere containing 5% CO2. After 4 days, AlamarBlue reagent (registered trademark, cat. No. DAL1100, lot No. AB083002, a product by Biosource International Inc.) was added at 10 μl/well, and the culture was continued at 37° C. in an atmosphere containing 5% CO2. After 2 hours, fluorescence intensity (excitation wavelength: 544 nm, measurement wavelength: 590 nm) was measured with a microplate reader (Model “Fluoroskan Ascent FL”, manufactured by Labsystems) to evaluate the number of cells. A significant difference test was performed by Dunnett's multiple comparison test (software “Super ANOVA V.1.11”, a product by Abacus Concepts).

epidermal cells = test: Epidermal cell growth test (Example 7, AlamarBlue); assay type: cell-based, C3H/HeN mouse; conditions: for effect on the epidermal cells as compared with that of the control: 4 days culture
Text: as §1, §2
The above-mentioned epidermis tissues were immersed in a solution prepared by dissolving 0.25% by mass of trypsin in 2.65 mM aqueous EDTA solution, and then treated at 37° C. for 5 minutes to prepare a dispersion solution of epidermal cells.
as §3, with “Subsequently,” for “Next,”, “minutes, and” for “minutes. After this centrifugation,”, “epidermal cells” for “HBKs”
as §4, §5

dermal fibroblasts = test: Dermal fibroblast growth test (Example 7, AlamarBlue); assay type: cell-based, C3H/HeN mouse; conditions: 0.3-100 μM, 3 days culture
Text: as §1
The skin of a 5 day-old C3H/HeN mouse was aseptically collected and cut with a surgical knife into samples of strips of approximately 2-mm-wide skin slices. The above-mentioned samples were immersed in a solution prepared by dissolving 500 U/ml of dispase (lot No. 0101, a product by GODO SHUSEI CO.) in DMEM (product code “D-5523”, a product by Sigma) containing 5% by mass of FBS (lot No. 0101, a product by Cansera International Inc.), and then kept standing at 4° C. for 16 hours. Subsequently, epidermis tissues were ablated with tweezers from the skin slices and separated from dermis tissues. […]
(§6) After 24 hours from the inoculation of the cells, the culture solutions were removed, and the cultured cells were washed with a DMEM solution. […] After 2 hours, fluorescence intensity (excitation wavelength: 544 nm, measurement wavelength: 590 nm) was measured with a microplate reader (Model “Fluoroskan Ascent FL”, manufactured by Labsystems) to evaluate the number of cells.

human hair papilla cells = test: Hair papilla cell growth test (Example 7, AlamarBlue); assay type: cell-based; conditions: 0.3-100 μM, 3 days culture
Text: as §1
Moreover, human hair papilla cells (product code “602-05”, a product by TOYOBO CO.) were dispersed in a culture medium, then inoculated into a collagen-coated 96-well microplate, and cultured at 37° C. in an atmosphere containing 5% CO2.
as §4, with “Only a test medium was used as a control.” left out
as §6

Question: Which results are given for CC[C@H](C)[C@H](NC(=O)[C@@H]1CCCN1C(=O)CN)C(=O)NCC(=O)N[C@@H](CO)C(=O)O (racemic) [Example 3, glycyl-prolyl-isoleucyl-glycyl-serine]?
Answer: hair growth promotion observed in pictures of the shaved areas (C3H/He female mice; compared with control group): evident hair growth promotion; ratio of the hair-regrowth area (C3H/He female mice; n=5, control 36.9±5.7%, p<0.01): 66.6±3.5%; effect on the HBK growth as compared with that of the control (HBKs; 0.3 μM (No. 6)): 101%; effect on the HBK growth as compared with that of the control (HBKs; 1 μM (No. 5)): 111%; effect on the HBK growth as compared with that of the control (HBKs; 3 μM (No. 4)): 124%; effect on the HBK growth as compared with that of the control (HBKs; 10 μM (No. 3)): 141%; effect on the HBK growth as compared with that of the control (HBKs; 30 μM (No. 2)): 142%; effect on the HBK growth as compared with that of the control (HBKs; 100 μM (No. 1)): 141%; concentration at which significant difference from control could be noted (HBKs; HBKs, p<0.01, Dunnett's test): ≥ 1 µM; effect on the epidermal cells as compared with that of the control (epidermal cells; 0.3 μM (No. 6)): 102%; effect on the epidermal cells as compared with that of the control (epidermal cells; 1 μM (No. 5)): 110%; effect on the epidermal cells as compared with that of the control (epidermal cells; 3 μM (No. 4)): 118%; effect on the epidermal cells as compared with that of the control (epidermal cells; 10 μM (No. 3)): 124%; effect on the epidermal cells as compared with that of the control (epidermal cells; 30 μM (No. 2)): 127%; effect on the epidermal cells as compared with that of the control (epidermal cells; 100 μM (No. 1)): 127%; concentration at which significant difference from control could be noted (epidermal cells; epidermal cells, 1 μM: p<0.05, 3 μM or higher: p<0.01): ≥ 1 µM; influence on dermal fibroblast growth (dermal fibroblasts): no influence; influence on hair papilla cell growth (human hair papilla cells): no influence
